Measured values reported in US8278336B2, “Compounds” (Boehringer Ingelheim International GmbH, priority 2007, dated 2012).

What follows are molecules tested against T1, human CGRP receptor (Homo sapiens, UniProt O60894+Q16602) (assay: Binding studies with SK-N-MC cells (125I-CGRP displacement on SK-N-MC membranes)). Details: 50 pM 125I-iodotyrosyl-CGRP, 180 minutes at ambient temperature.
T1 construct: SK-N-MC membranes (˜20 μg protein) are incubated for 180 minutes at ambient temperature; endogenous in cells; host or cells: SK-N-MC cells (membrane preparation)
T1 sequence (Q16602 23-461): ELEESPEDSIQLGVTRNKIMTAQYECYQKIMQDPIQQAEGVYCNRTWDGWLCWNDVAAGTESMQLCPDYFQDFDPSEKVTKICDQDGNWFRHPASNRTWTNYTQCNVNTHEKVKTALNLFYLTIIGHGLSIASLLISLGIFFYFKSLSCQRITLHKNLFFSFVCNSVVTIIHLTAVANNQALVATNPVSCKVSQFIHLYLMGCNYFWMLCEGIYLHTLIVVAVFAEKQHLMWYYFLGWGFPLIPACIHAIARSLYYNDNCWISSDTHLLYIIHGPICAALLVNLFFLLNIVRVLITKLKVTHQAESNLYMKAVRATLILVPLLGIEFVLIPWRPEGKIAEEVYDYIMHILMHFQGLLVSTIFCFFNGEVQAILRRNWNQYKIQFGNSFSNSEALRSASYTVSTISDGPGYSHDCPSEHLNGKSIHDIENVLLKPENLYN
T1 sequence (O60894 27-148): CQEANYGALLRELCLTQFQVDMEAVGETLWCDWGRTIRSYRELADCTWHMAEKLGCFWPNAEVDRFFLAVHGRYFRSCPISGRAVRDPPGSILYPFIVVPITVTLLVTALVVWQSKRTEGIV
Procedure: A. Binding Studies with SK-N-MC Cells (Expressing the Human CGRP Receptor)
SK-N-MC membranes (˜20 μg protein) are incubated for 180 minutes at ambient temperature with 50 pM ^125I-iodotyrosyl-Calcitonin-Gene-Related Peptide and increasing concentrations of the test substances in a total volume of […] (assay buffer: 10 mM tris, 50 mM NaCl, 5 mM MgCl2, 1 mM EDTA, pH=7.4). The incubation is ended by rapid filtration through GF/B-glass fibre filters treated with polyethyleneimine (0.1%) using a cell harvester. The protein-bound radioactivity is measured using a gamma counter. Non-specific binding is defined as the bound radioactivity after the presence of 1 μM BIBN4096BS during incubation.
The concentration binding curves are analysed using computer-aided non-linear curve fitting.

First: COc1ccc2c(c1)CCN(C1CCN(c3cc(C(=O)N4CCc5cc(F)ccc54)cc(=O)[nH]3)CC1)C(=O)N2 [Example 3, 3-[4′-(5-fluoro-2,3-dihydroindole-1-carbonyl)-6′-oxo-3,4,5,6,1′,6′-hexahydro-2H-1,2′-bipyridinyl-4-yl]-7-methoxy-1,3,4,5-tetrahydro-1,3-benzodiazepin-2-one]
Second: Cn1c(N2CCC(n3c(=O)[nH]c4ncccc43)CC2)cc(C(=O)N2CCc3cc(F)ccc32)cc1=O [Example 2, 4′-(5-fluoro-2,3-dihydroindole-1-carbonyl)-1′-methyl-4-(2-oxo-2,3-dihydroimidazo[4,5-b]-pyridin-1-yl)-3,4,5,6-tetrahydro-2H,1′H-[1,2′]bipyridinyl-6′-one]
The Ki of the first is 57-fold lower: 8.4 nM for the first, 480 nM for the second.

Molecule CC1(C)CN(C(=O)c2cc(N3CCC(n4c(=O)[nH]c5ncccc54)CC3)[nH]c(=O)c2)c2ccc(F)cc21 [Example 4, 4′-(5-fluoro-3,3-dimethyl-2,3-dihydroindole-1-carbonyl)-4-(2-oxo-2,3-dihydroimidazo[4,5-b]-pyridin-1-yl)-3,4,5,6-tetrahydro-2H,1′H-[1,2′]bipyridinyl-6′-one] has a Ki of 3.8 nM.
